We go through five compounds from patent US10010614B2, “Derivatives of GLP-1 like peptides, and uses thereof” (Novo Nordisk A/S, priority 2013, dated 2018).

Read-outs that look alike come from different tables or passages of the source. Numbered stars: 1 amine (or outer) side, 2 acyl side, 3 side chain; on linkers, the order of the positions; unused ones are H or OH. Square brackets hold non-standard residues; d marks the D form. Side chains are listed from the residue outwards. Peptide text beside a SMILES is read from it. * marks the point of attachment. X2 = O=C(O)CCCCCCCCCCCCCCCCCCC(=O)NC[C@H]1CC[C@H](C(=O)N[C@@H](CCC(=O)NCCOCCOCCN*)C(=O)O)CC1; C20 diacid = O=C(O)CCCCCCCCCCCCCCCCCCC(=O)*; γGlu = O=C(O)[C@H](CCC(=O)[*:2])N[*:1]; εLys = N[C@@H](CCCCN[*:1])C(=O)[*:2]; Trx = NC[C@H]1CC[C@H](C(=O)O)CC1; Suc = O=C(CCC(=O)[*:2])[*:1]; AEEA = NCCOCCOCC(=O)O; Aib = CC(C)(N)C(=O)O

The target of test [1] is T1, human GLP-1 receptor (Homo sapiens, UniProt P43220).
T1 construct: expressed in transfected cells; host or cells: membranes prepared from BHK cells (parent line BHKTS13), clone FCW467-12A
T1 sequence (P43220 24-463): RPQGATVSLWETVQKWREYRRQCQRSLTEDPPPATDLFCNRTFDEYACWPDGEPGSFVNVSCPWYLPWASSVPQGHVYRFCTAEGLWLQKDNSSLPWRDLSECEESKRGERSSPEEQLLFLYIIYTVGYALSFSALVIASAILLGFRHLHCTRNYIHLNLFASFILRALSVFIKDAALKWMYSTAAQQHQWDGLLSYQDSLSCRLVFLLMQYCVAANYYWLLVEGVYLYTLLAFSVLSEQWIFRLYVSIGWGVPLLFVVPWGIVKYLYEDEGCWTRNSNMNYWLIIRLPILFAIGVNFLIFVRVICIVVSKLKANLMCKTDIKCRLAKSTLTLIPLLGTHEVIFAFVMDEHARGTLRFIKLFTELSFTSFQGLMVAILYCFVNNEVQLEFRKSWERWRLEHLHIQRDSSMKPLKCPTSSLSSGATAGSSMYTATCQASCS
The test is described as follows: GLP-1 receptor binding, competitive binding assay (125I-GLP-1, SPA) on isolated membranes.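 Note: test compounds added at a range of concentrations to membranes from cells expressing the human GLP-1 receptor, scored by displacement of labelled ligand, read with WGA SPA beads.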

Test [2] concerns the target T1, human GLP-1 receptor. The test is described as follows: In vitro potency, CRE luciferase reporter gene assay in BHK cells expressing the human GLP-1 receptor. In kind it is cell-based. As to conditions: whole cell reporter gene assay, 3 h incubation, no HSA, averages of at least two replicates. The method in brief:
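Stably transfected BHK cells (5×10^3/well) expressing human GLP-1R with a CRE-luciferase reporter; compounds diluted in buffer with 2% ovalbumin and 0.2% Pluronic F-68, final 1×10^−7 to 1×10^−14 M. Incubated 3 h at 37 °C, 5% CO2, then luminescence read; potency from non-linear log(agonist)–response fit, mean of ≥2 replicates.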
(Reporter assays use an easily measured gene product as a stand-in for the process of interest.)

The mark [3] stands for this setting: High HSA IC50 (nM), high serum albumin (2.0% HSA final assay concentration).
The mark [4] stands for this setting: Low HSA IC50 (nM), low serum albumin (max. 0.001% final assay concentration).
Where [5] appears, read: high serum albumin (2.0% HSA final assay concentration), read-out: High HSA IC50.
The mark [6] stands for this setting: low serum albumin (max. 0.001% final assay concentration), read-out: Low HSA IC50.

Turning to `CC[C@H](C)[C@H](NC(=O)[C@H](Cc1ccccc1)NC(=O)[C@H](CCC(=O)O)NC(=O)[C@H](CCCNC(=N)N)NC(=O)[C@H](C)NC(=O)[C@H](C)NC(=O)[C@H](CCC(N)=O)NC(=O)[C@H](CCC(=O)O)NC(=O)[C@H](CCC(=O)O)NC(=O)[C@H](CC(C)C)NC(=O)[C@H](Cc1ccc(O)cc1)NC(=O)[C@H](CO)NC(=O)[C@H](CO)NC(=O)[C@@H](NC(=O)[C@H](CC(=O)O)NC(=O)[C@H](CO)NC(=O)[C@@H](NC(=O)[C@H](Cc1ccccc1)NC(=O)[C@@H](NC(=O)CNC(=O)[C@H](CCC(=O)O)NC(=O)C(C)(C)NC(=O)[C@@H](N)Cc1c[nH]cn1)[C@@H](C)O)[C@@H](C)O)C(C)C)C(=O)N[C@@H](C)C(=O)N[C@@H](Cc1c[nH]c2ccccc12)C(=O)N[C@@H](CC(C)C)C(=O)N[C@H](C(=O)N[C@@H](CCCNC(=N)N)C(=O)NCC(=O)N[C@@H](CCCNC(=N)N)C(=O)NCC(=O)N[C@@H](CCCCNC(=O)CCC(=O)NCCOCCOCCNC(=O)CC[C@H](NC(=O)[C@H]1CC[C@H](CNC(=O)CCCCCCCCCCCCCCCCCCC(=O)O)CC1)C(=O)O)C(=O)NCC(=O)NCC(=O)N[C@@H](CO)C(=O)N[C@@H](CCCCNC(=O)CCC(=O)NCCOCCOCCNC(=O)CC[C@H](NC(=O)[C@H]1CC[C@H](CNC(=O)CCCCCCCCCCCCCCCCCCC(=O)O)CC1)C(=O)O)C(=O)O)C(C)C` [Example 23] (H-H[Aib]EGTFTSDVSSYLEEQAAREFIAWLVRGRGK([Suc-X2])GGSK([Suc-X2])-OH), the figures for the IC50 in test [1] (setting [3]) and in test [1] (setting [4]) were 201 nM and 1.4 nM, respectively. Besides, the concentration giving a half-maximal response (EC50) (as a rule, the midpoint of the concentration-response curve) in test [2] is 22 pM.

With `CC[C@H](C)[C@H](NC(=O)[C@H](Cc1ccccc1)NC(=O)[C@H](CCC(=O)O)NC(=O)[C@H](CCCNC(=N)N)NC(=O)[C@H](C)NC(=O)[C@H](C)NC(=O)[C@H](CCC(N)=O)NC(=O)[C@H](CCC(=O)O)NC(=O)[C@H](CCC(=O)O)NC(=O)[C@H](CC(C)C)NC(=O)[C@H](Cc1ccc(O)cc1)NC(=O)[C@H](CO)NC(=O)[C@H](CO)NC(=O)[C@@H](NC(=O)[C@H](CC(=O)O)NC(=O)[C@H](CO)NC(=O)[C@@H](NC(=O)[C@H](Cc1ccccc1)NC(=O)[C@@H](NC(=O)CNC(=O)[C@H](CCC(=O)O)NC(=O)C(C)(C)NC(=O)[C@@H](N)Cc1c[nH]cn1)[C@@H](C)O)[C@@H](C)O)C(C)C)C(=O)N[C@@H](C)C(=O)N[C@@H](Cc1c[nH]c2ccccc12)C(=O)N[C@@H](CC(C)C)C(=O)N[C@H](C(=O)N[C@@H](CCCNC(=N)N)C(=O)NCC(=O)N[C@@H](CCCNC(=N)N)C(=O)NCC(=O)N[C@@H](CCCCNC(=O)COCCOCCNC(=O)COCCOCCNC(=O)COCCOCCNC(=O)COCCOCCNC(=O)COCCOCCNC(=O)COCCOCCNC(=O)CC[C@H](NC(=O)[C@H]1CC[C@H](CNC(=O)CCCCCCCCCCCCCCCCCCC(=O)O)CC1)C(=O)O)C(=O)NCC(=O)NCC(=O)N[C@@H](CO)C(=O)N[C@@H](CCCCNC(=O)COCCOCCNC(=O)COCCOCCNC(=O)COCCOCCNC(=O)COCCOCCNC(=O)COCCOCCNC(=O)COCCOCCNC(=O)CC[C@H](NC(=O)[C@H]1CC[C@H](CNC(=O)CCCCCCCCCCCCCCCCCCC(=O)O)CC1)C(=O)O)C(=O)O)C(C)C` [Example 24] (H-H[Aib]EGTFTSDVSSYLEEQAAREFIAWLVRGRGK([AEEA-AEEA-AEEA-AEEA-AEEA-AEEA-γGlu-Trx-C20 diacid])GGSK([AEEA-AEEA-AEEA-AEEA-AEEA-AEEA-γGlu-Trx-C20 diacid])-OH), the half-maximal inhibitory concentration (IC50) (commonly the concentration at which inhibition is half-maximal) in test [1] (setting [3]) was 84 nM; in test [1] (setting [4]), 0.67 nM. The compound also displayed an EC50 in test [2] of 7 pM.

`CC[C@H](C)[C@H](NC(=O)[C@H](Cc1ccccc1)NC(=O)[C@H](CCC(=O)O)NC(=O)[C@H](CCCNC(=N)N)NC(=O)[C@H](C)NC(=O)[C@H](C)NC(=O)[C@H](CCC(N)=O)NC(=O)[C@H](CCC(=O)O)NC(=O)[C@H](CCC(=O)O)NC(=O)[C@H](CC(C)C)NC(=O)[C@H](Cc1ccc(O)cc1)NC(=O)[C@H](CO)NC(=O)[C@H](CO)NC(=O)[C@@H](NC(=O)[C@H](CC(=O)O)NC(=O)[C@H](CO)NC(=O)[C@@H](NC(=O)[C@H](Cc1ccccc1)NC(=O)[C@@H](NC(=O)CNC(=O)[C@H](CCC(=O)O)NC(=O)C(C)(C)NC(=O)[C@@H](N)Cc1c[nH]cn1)[C@@H](C)O)[C@@H](C)O)C(C)C)C(=O)N[C@@H](C)C(=O)N[C@@H](Cc1c[nH]c2ccccc12)C(=O)N[C@@H](CC(C)C)C(=O)N[C@H](C(=O)N[C@@H](CCCNC(=N)N)C(=O)NCC(=O)N[C@@H](CCCNC(=N)N)C(=O)NCC(=O)N[C@@H](CCCCNC(=O)COCCOCCNC(=O)COCCOCCNC(=O)COCCOCCNC(=O)COCCOCCNC(=O)[C@@H](N)CCCCNC(=O)[C@@H](N)CCCCNC(=O)CCCCCCCCCCCCCCCCCCC(=O)O)C(=O)NCC(=O)NCC(=O)N[C@@H](CO)C(=O)N[C@@H](CCCCNC(=O)COCCOCCNC(=O)COCCOCCNC(=O)COCCOCCNC(=O)COCCOCCNC(=O)[C@@H](N)CCCCNC(=O)[C@@H](N)CCCCNC(=O)CCCCCCCCCCCCCCCCCCC(=O)O)C(=O)O)C(C)C` [Example 25] (H-H[Aib]EGTFTSDVSSYLEEQAAREFIAWLVRGRGK([AEEA-AEEA-AEEA-AEEA-εLys-εLys-C20 diacid])GGSK([AEEA-AEEA-AEEA-AEEA-εLys-εLys-C20 diacid])-OH; N-terminus and C-terminus assumed): the results for the concentration for half-maximal inhibition (IC50) in test [1] (setting [5]) and in test [1] (setting [6]) were 38 nM and 0.22 nM, respectively. In addition, the EC50 in test [2] stood at 10 pM.

`CC[C@H](C)[C@H](NC(=O)[C@H](Cc1ccccc1)NC(=O)[C@H](CCC(=O)O)NC(=O)[C@H](CCCNC(=N)N)NC(=O)[C@H](C)NC(=O)[C@H](C)NC(=O)[C@H](CCC(N)=O)NC(=O)[C@H](CCC(=O)O)NC(=O)[C@H](CCC(=O)O)NC(=O)[C@H](CC(C)C)NC(=O)[C@H](Cc1ccc(O)cc1)NC(=O)[C@H](CO)NC(=O)[C@H](CO)NC(=O)[C@@H](NC(=O)[C@H](CC(=O)O)NC(=O)[C@H](CO)NC(=O)[C@@H](NC(=O)[C@H](Cc1ccccc1)NC(=O)[C@@H](NC(=O)CNC(=O)[C@H](CCC(=O)O)NC(=O)C(C)(C)NC(=O)[C@@H](N)Cc1c[nH]cn1)[C@@H](C)O)[C@@H](C)O)C(C)C)C(=O)N[C@@H](C)C(=O)N[C@@H](Cc1c[nH]c2ccccc12)C(=O)N[C@@H](CC(C)C)C(=O)N[C@H](C(=O)N[C@@H](CCCNC(=N)N)C(=O)NCC(=O)N[C@@H](CCCNC(=N)N)C(=O)NCC(=O)N[C@@H](CCCCNC(=O)COCCOCCNC(=O)COCCOCCNC(=O)COCCOCCNC(=O)COCCOCCNC(=O)COCCOCCNC(=O)[C@@H](N)CCCCNC(=O)[C@@H](N)CCCCNC(=O)CCCCCCCCCCCCCCCCCCC(=O)O)C(=O)NCC(=O)NCC(=O)N[C@@H](CO)C(=O)N[C@@H](CCCCNC(=O)COCCOCCNC(=O)COCCOCCNC(=O)COCCOCCNC(=O)COCCOCCNC(=O)COCCOCCNC(=O)[C@@H](N)CCCCNC(=O)[C@@H](N)CCCCNC(=O)CCCCCCCCCCCCCCCCCCC(=O)O)C(=O)O)C(C)C` [Example 27] (H-H[Aib]EGTFTSDVSSYLEEQAAREFIAWLVRGRGK([AEEA-AEEA-AEEA-AEEA-AEEA-εLys-εLys-C20 diacid])GGSK([AEEA-AEEA-AEEA-AEEA-AEEA-εLys-εLys-C20 diacid])-OH; N-terminus and C-terminus assumed): the IC50 in test [1] (setting [5]) worked out at 30 nM; in test [1] (setting [6]), 0.08 nM. In test [2], this compound came in with an EC50 of 4.4 pM.

On to `CC[C@H](C)[C@H](NC(=O)[C@H](Cc1ccccc1)NC(=O)[C@H](CCC(=O)O)NC(=O)[C@H](CCCNC(=N)N)NC(=O)[C@H](C)NC(=O)[C@H](C)NC(=O)[C@H](CCC(N)=O)NC(=O)[C@H](CCC(=O)O)NC(=O)[C@H](CCC(=O)O)NC(=O)[C@H](CC(C)C)NC(=O)[C@H](Cc1ccc(O)cc1)NC(=O)[C@H](CO)NC(=O)[C@H](CO)NC(=O)[C@@H](NC(=O)[C@H](CC(=O)O)NC(=O)[C@H](CO)NC(=O)[C@@H](NC(=O)[C@H](Cc1ccccc1)NC(=O)[C@@H](NC(=O)CNC(=O)[C@H](CCC(=O)O)NC(=O)C(C)(C)NC(=O)[C@@H](N)Cc1c[nH]cn1)[C@@H](C)O)[C@@H](C)O)C(C)C)C(=O)N[C@@H](C)C(=O)N[C@@H](Cc1c[nH]c2ccccc12)C(=O)N[C@@H](CC(C)C)C(=O)N[C@H](C(=O)N[C@@H](CCCNC(=N)N)C(=O)NCC(=O)N[C@@H](CCCNC(=N)N)C(=O)NCC(=O)N[C@@H](CCCCNC(=O)COCCOCCNC(=O)COCCOCCNC(=O)COCCOCCNC(=O)COCCOCCNC(=O)COCCOCCNC(=O)COCCOCCNC(=O)[C@@H](N)CCCCNC(=O)[C@@H](N)CCCCNC(=O)CCCCCCCCCCCCCCCCCCC(=O)O)C(=O)NCC(=O)NCC(=O)N[C@@H](CO)C(=O)N[C@@H](CCCCNC(=O)COCCOCCNC(=O)COCCOCCNC(=O)COCCOCCNC(=O)COCCOCCNC(=O)COCCOCCNC(=O)COCCOCCNC(=O)[C@@H](N)CCCCNC(=O)[C@@H](N)CCCCNC(=O)CCCCCCCCCCCCCCCCCCC(=O)O)C(=O)O)C(C)C` [Example 28] (H-H[Aib]EGTFTSDVSSYLEEQAAREFIAWLVRGRGK([AEEA-AEEA-AEEA-AEEA-AEEA-AEEA-εLys-εLys-C20 diacid])GGSK([AEEA-AEEA-AEEA-AEEA-AEEA-AEEA-εLys-εLys-C20 diacid])-OH; N-terminus and C-terminus assumed), for which the concentration for half-maximal inhibition (IC50) stood at 30 nM in test [1] (setting [5]) and 0.05 nM in test [1] (setting [6]). Besides, the EC50 in test [2] was 3.4 pM.
